Values after ≈ are worked out from the molar mass of the structure shown. Read-outs that look alike come from different tables or passages of the source.
Tests used:
Assay type in all cases: physicochemical
[1] = solubility at different pH values
Description: Table 1 gives an overview of the solubility of anhydrous dasatinib ("N-6") and dasatinib monohydrate ("H1-7") at different pH values. Table 1: solubility of anhydrous dasatinib ("N-6") and dasatinib monohydrate ("H1-7")

[2] = stability of tablets stored at 40°C/75% RH (assay and impurities); settings: triacetin used as plasticizer in the coating formulation
Description: The intragranular components were blended with water in a high shear mixer. The resulting granulate was dried in a fluid bed dryer. The granulate was sieved through an appropriate mesh size sieve. Microcrystalline cellulose and croscarmellose sodium were sieved through a suitable mesh size sieve for deagglomeration. The excipients were mixed with the sieved granulate in a diffusion mixer. Magnesium stearate was sieved through an appropriate sieve to deagglomerate and mixed with the powder mix in a diffusion mixer. The homogeneous powder obtained, was compressed using a rotating tablet press using appropriate punches. Part of the tablets were coated with a water suspension of Opadry® II White 31K28459 coating until 3% weight gain (= […]). The tablets were packed in suitable packaging material and were stored at 40°C/75% RH.
Hydroxypropyl cellulose was dissolved in water and blended with the other intragranular components in a high shear mixer. The resulting granulate was dried in a fluid bed dryer. The granulate was sieved through an appropriate mesh size sieve. Microcrystalline cellulose and croscarmellose sodium were sieved through a suitable mesh size sieve for deagglomeration. The excipients were mixed with the sieved granulate in a tumbling mixer. […]

[3] = form conversion during wet granulation in water; settings: during the process of granulation in water
Description: The wet granulation process is performed with a granulation solvent selected from the group consisting of water, acetone, ethanol, isopropanol or a mixture thereof.

| solubility ([1]; pH 1.2) [µg/mL] | solubility ([1]; pH 1.2, listed as anhydrous form "N-6") [µg/mL] | solubility ([1]; pH 4.5, aqueous buffer, pH 4.5, read-out: solubility) [µg/mL] | solubility ([1]; pH 6.8) [µg/mL] | reaction with the organic ester triacetin [2] | solubility ([1]; pH 1.2, listed as dasatinib monohydrate "H1-7") [µg/mL] | solubility ([1]; pH 4.5) [µg/mL] | Structure (SMILES) | conversion into dasatinib monohydrate [3] |
| --- | --- | --- | --- | --- | --- | --- | --- | --- |
| 34510 (≈ 70700 µM) | 34510 (≈ 70700 µM) | 179 (≈ 367 µM) | 1.8 (≈ 3.69 µM) | does not react | – | – | Cc1nc(Nc2ncc(C(=O)Nc3c(C)cccc3Cl)s2)cc(N2CCN(CCO)CC2)n1 [Anhydrous dasatinib ("N-6"), N-(2-chloro-6-methylphenyl)-2-[[6-[4-(2-hydroxyethyl)-1-piperazinyl]-2-methyl-4-pyrimidinyl]amino]-5-thiazolecarboxamide] | does not convert into dasatinib monohydrate |
| 2850 | – | – | 0.6 | – | 2850 | 134 | Cc1nc(Nc2ncc(C(=O)Nc3c(C)cccc3Cl)s2)cc(N2CCN(CCO)CC2)n1 [Dasatinib monohydrate ("H1-7"), N-(2-chloro-6-methylphenyl)-2-[[6-[4-(2-hydroxyethyl)-1-piperazinyl]-2-methyl-4-pyrimidinyl]amino]-5-thiazolecarboxamide] | – |
